# Where a name gives a salt, the structure may show the parent alone.
# Experiments:
# [1] = tested on: human lymphoid B-cell culture; assay: Cell labeling with fluorinated fluorescein diacetates, flow cytometry; type: cell-based; details: 1 μM, 37° C., 30 minutes, washed, fixed; compared with FDA after two hours (FIG. 5)
# Experimental: Cells from a human lymphoid B-cell culture in RPMI 1640 medium are treated with 1 μM Compound 25 (4,5,6,7-TFFDA), Compound 26 (2',4,5,6,7,7'-HFFDA), or fluorescein diacetate (FDA) at 37° C. for 30 minutes. Following centrifugation and washing in PBS, the pellets are resuspended in RPMI 1640 medium for 15 min, recentrifuged and washed in PBS, fixed with 3.7% formaldehyde in PBS and analyzed by flow cytometry using 488 nm excitation. […] Alternatively, the stained and washed cells are viewed or analyzed without fixation.
# [2] = tested on: ATP-dependent dye efflux mechanisms in lymphoid-B cell lines; assay: Dye efflux from labeled cells with and without verapamil or probenecid, flow cytometry; type: cell-based
# Experimental: Identical batches of lymphoid-B cell lines cells are separately incubated with […] solutions of 4,5,6,7-tetrafluorofluorescein diacetate (Compound 25), 2',7'-dichloro4,5,6,7-tetrafluorofluorescein diacetate (Compound 28), 2',4,5,6,7,7'-hexafluorofluorescein diacetate ([…]) and 2',4',5',7'-tetrafluorofluorescein diacetate. To one set of each cells is added 100 μM verapamil and to another 1 mM probenecid, both of which are known to block ATP-dependent dye efflux mechanisms, as found in multidrug resistant of cells. Without washing, the cells are analyzed for brightness by flow cytometry using 488-nm excitation.
# [3] = target: Escherichia coli β-galactosidase (Escherichia coli, UniProt P00722); assay: Labeling β-galactosidase with a fluorinated fluorescein diacetate; details: 3 mg enzyme in PBS pH 7.5, 13.6 μL of 1 mg/mL dye, 1 hour; estimated with ε=85,600 cm^-1 M^-1 at 515 nm
# Escherichia coli β-galactosidase, sequence (P00722 2-1024): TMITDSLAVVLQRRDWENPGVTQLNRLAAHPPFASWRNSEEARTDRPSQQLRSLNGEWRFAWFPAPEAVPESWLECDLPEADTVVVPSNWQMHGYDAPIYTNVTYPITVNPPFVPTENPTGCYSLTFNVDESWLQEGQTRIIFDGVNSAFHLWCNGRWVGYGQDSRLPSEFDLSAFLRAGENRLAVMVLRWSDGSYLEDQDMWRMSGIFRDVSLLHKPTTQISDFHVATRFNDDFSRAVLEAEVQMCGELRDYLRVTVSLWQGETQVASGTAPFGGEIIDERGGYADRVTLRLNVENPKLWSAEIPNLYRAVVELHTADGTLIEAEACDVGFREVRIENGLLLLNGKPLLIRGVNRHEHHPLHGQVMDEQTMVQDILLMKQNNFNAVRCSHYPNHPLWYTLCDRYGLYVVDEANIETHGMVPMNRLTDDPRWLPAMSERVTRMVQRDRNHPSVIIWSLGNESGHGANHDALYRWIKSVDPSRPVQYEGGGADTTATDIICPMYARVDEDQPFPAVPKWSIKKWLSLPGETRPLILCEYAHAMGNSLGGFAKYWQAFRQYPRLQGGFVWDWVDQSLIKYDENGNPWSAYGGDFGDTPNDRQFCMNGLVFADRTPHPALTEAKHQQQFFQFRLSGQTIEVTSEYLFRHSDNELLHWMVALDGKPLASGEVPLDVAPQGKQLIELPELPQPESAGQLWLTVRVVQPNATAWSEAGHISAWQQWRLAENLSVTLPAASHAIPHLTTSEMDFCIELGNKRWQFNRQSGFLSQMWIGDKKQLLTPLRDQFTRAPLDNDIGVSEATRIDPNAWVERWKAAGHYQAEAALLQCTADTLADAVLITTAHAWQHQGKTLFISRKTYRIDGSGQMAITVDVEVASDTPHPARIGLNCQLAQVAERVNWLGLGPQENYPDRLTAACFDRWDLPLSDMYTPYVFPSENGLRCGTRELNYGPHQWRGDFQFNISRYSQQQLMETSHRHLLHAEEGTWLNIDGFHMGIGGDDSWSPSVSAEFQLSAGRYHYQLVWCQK
# Experimental: Escherichia coli β-galactosidase (3 mg) in 150 μL phosphate-buffered saline pH 7.5 is treated with 13.6 μL of a 1 mg/mL stock solution of 4,5,6,7-tetrafluorofluorescein diacetate (Compound 25) in DMSO. After 1 hour the pH is raised to 10 with Na2 CO3 for 2 hours to remove the acetates. Unreacted dye is removed on a spin column. The degree of substitution is estimated at 8.6 using κ=85,600 cm^-1 M^-1 at 515 nm.
# [4] = pH titration of fluorophores (pKa); details: Table 1
# Experimental: The dye of interest is first dissolved in a series of buffers that have each been calibrated using a pH meter. Acetate buffers are typically used in the range of pH 46, and phosphate buffers in the pH range 68. Absorption measurements are made using solutions that are approximately 10 1M in concentration, and fluorescence measurements are made using solutions that are approximately 1 μM in concentration. The absorption or emission data is then plotted versus pH to determine pKa values.
# [5] = Spectral properties of selected fluorinated fluoresceins and rhodols; type: physicochemical
# [6] = Photodecomposition on illumination in fluorometer; type: physicochemical; details: % of decreased fluorescence intensity after 33 minutes of illumination in fluorometer at wavelength of maximum excitation
# Experimental: *% of decreased fluorescence intensity after 33 minutes of illumination in
# fluorometer at wavelength of maximum excitation
# [7] = target: T1, acid β-galactosidase from bovine testes (Bos taurus, UniProt Q58D55); assay: Detection of acid β-galactosidase activity; type: biochemical; details: 50 μM substrate, 4.6 nM enzyme, pH 4.5, excitation 490 nm, emission 512 nm
# T1 construct: from tissue; host or cells: bovine testes
# T1 sequence (Q58D55 28-653): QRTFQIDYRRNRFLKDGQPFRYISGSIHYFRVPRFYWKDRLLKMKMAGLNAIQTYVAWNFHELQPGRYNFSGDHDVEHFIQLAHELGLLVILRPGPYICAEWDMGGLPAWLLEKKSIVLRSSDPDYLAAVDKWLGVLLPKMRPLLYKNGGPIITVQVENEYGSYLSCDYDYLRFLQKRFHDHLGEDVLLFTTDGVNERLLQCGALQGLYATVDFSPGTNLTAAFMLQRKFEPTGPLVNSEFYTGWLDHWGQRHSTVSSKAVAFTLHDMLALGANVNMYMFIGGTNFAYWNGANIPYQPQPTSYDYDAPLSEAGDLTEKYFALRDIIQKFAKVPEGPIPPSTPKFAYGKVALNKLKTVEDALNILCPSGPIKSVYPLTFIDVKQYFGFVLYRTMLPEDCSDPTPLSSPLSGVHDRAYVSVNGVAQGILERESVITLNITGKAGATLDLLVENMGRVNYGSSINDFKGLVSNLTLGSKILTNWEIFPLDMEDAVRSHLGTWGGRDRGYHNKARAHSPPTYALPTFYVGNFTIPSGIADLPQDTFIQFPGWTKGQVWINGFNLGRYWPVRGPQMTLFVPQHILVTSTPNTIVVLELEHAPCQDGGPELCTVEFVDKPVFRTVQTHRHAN
# Experimental: The fluorescence resulting from the action of acid β-galactosidase from bovine testes on fluorescein digalactoside (FDG) and DFFDG is compared. The fluorescence increase at 512 nm when excited at 490 nm is measured versus time for 50 μM substrate with 4.6 nM enzyme in assay buffer (200 mM sodium phosphate +75 mM citric acid, pH 4.5). The initial rate of fluorescence production from DFFDG is 3.0 times that obtained using FDG.
# [8] = target: T2, Endogenous (Lysosomal) β-galactosidase in NIH 3T3 cells (Mus musculus, UniProt P23780); assay: Detection of endogenous (lysosomal) β-galactosidase activity in intact cells by flow cytometry; type: cell-based; details: 1 μM, 37° C., 30 minutes; for Fluorescence Emission: normalized to FDG, Table 4
# T2 construct: Endogenous (Lysosomal) β-galactosidase Activity in Intact Cells; endogenous in cells; host or cells: NIH 3T3
# T2 sequence (P23780 30-647): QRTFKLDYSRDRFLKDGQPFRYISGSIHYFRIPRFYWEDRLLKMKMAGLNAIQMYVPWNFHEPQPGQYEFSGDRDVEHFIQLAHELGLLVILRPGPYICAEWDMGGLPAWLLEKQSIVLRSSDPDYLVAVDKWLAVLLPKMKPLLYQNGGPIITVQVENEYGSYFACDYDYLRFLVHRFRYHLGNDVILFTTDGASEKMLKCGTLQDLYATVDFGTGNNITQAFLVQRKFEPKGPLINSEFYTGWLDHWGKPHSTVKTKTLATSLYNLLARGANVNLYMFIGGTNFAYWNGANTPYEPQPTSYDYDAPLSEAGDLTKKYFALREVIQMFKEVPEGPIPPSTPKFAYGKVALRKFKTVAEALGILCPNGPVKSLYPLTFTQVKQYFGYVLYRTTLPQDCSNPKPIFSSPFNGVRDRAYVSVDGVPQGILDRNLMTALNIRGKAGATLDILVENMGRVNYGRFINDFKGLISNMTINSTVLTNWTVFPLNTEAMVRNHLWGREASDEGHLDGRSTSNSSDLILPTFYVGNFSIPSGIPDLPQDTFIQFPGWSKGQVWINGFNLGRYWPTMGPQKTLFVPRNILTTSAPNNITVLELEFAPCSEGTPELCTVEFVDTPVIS
# Experimental: NIH 3T3 cells that are not transfected with exogenous β-galactosidase were cultured in Dulbecco's Modified Minimal Essential Medium supplemented with 10% fetal bovine serum and 2 mM L-glutamine. Stock solutions of TFMFDG and TFFDG in phosphate buffered saline (PBS) are added to the cell culture medium to obtain a final dye concentration of 1 μM. The cells are incubated at 37° C. for 30 minutes, put on ice and assayed immediately by flow cytometry using a FACS-Vantage instrument equipped with an argon-ion laser (488 nm excitation). Fluorescence emission is collected using a 515 nm long-pass filter and a single photomultiplier tube.
# [9] = target: prostatic acid phosphatase (Homo sapiens, UniProt P15309); assay: Detection of acid phosphatase activity; type: biochemical; details: 10 μM substrate, 0.1 units enzyme, pH 5, excitation 490 nm, emission 515 nm
# prostatic acid phosphatase, sequence (P15309 33-386): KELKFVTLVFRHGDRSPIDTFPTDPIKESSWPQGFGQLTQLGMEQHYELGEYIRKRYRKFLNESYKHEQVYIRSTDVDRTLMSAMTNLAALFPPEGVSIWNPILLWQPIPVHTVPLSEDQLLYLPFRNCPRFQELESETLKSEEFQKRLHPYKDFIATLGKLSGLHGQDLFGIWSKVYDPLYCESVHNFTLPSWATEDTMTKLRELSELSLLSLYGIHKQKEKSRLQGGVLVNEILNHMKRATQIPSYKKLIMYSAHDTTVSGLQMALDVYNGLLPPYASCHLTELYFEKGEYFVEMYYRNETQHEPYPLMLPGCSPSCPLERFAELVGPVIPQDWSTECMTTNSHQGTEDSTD
# Experimental: The rate of fluorescent product generation is measured by exciting a solution of 10 μM DFFDP or fluorescein diphosphate (FDP) at 490 nm while monitoring the emission at 515 nm in a fluorometer in the presence of 0.1 units of prostatic acid phosphatase at pH 5. Under these conditions, acid phosphatase produces about a 6.5 times greater change in signal using DFFP than FDP.
# [10] = Ca2+ binding affinity of BAPTA conjugate (Calcium Calibration Buffer Kit II)
# Experimental: The fluorescence response and dissociation constant of the fluorescent BAPTA conjugates are determined using the Calcium Calibration Buffer Kit II (Molecular Probes, Inc.; Eugene Oreg.), which is based on a method described by Tsien et al. METH. ENZYM. 172, 230 (1989). For example, 1 mg of Compound 103 is dissolved in deionized water and 5 μL is diluted into 3 mL of each of two buffers, which are cross diluted to arrive at a series of Ca^2+ concentrations between zero and 35 μM. Emission spectra of the dye solutions are scanned between dilutions to generate a family of curves. Each of these curves has maximal fluorescence emission at approximately 530 nm with an increase in fluorescence emission intensity with increasing Ca^2+ concentration. This intensity change is plotted against the concentration of free Ca^2+ to give a value for the dissociation constant of the indicator. […] The calculated dissociation constant at 20° C. is 169 nM.
structure (smiles),measurement,setting,value
"CC(=O)Oc1c(F)cc2c(c1F)Oc1c(cc(F)c(OC(C)=O)c1F)C21OC(=O)c2ccccc21 [2',4',5',7'-TFFDA, 2',4',5',7'-tetrafluorofluorescein diacetate]",fluorescence of stained cells,[1],weakly fluorescent
same,Mean Fluorescence intensity of labeled cells,[2]; 100 μM verapamil,14.0
same,Mean Fluorescence intensity of labeled cells,[2]; 1 mM Probenecid,12.8
same,Mean Fluorescence intensity of labeled cells,[2]; No drug,2.9
"CC(=O)Oc1ccc2c(c1)Oc1cc(OC(C)=O)ccc1C21OC(=O)c2c(F)c(F)c(F)c(F)c21 [Compound 25, 4,5,6,7-tetrafluorofluorescein Diacetate]",fluorescence of stained cells,[1],significantly higher fluorescence
same,protein labeling (degree of substitution),[3],8.6
same,Mean Fluorescence intensity of labeled cells,[2]; 100 μM verapamil,1892
same,Mean Fluorescence intensity of labeled cells,[2]; 1 mM Probenecid,2521
same,Mean Fluorescence intensity of labeled cells,[2]; No drug,732
"CC(=O)Oc1cc2c(cc1F)C1(OC(=O)c3c(F)c(F)c(F)c(F)c31)c1cc(F)c(OC(C)=O)cc1O2 [Compound 27, 2',4,5,6,7,7'-hexafluorofluorescein Diacetate]",fluorescence of stained cells,[1],significantly higher fluorescence
same,Mean Fluorescence intensity of labeled cells,[2]; 100 μM verapamil,212
same,Mean Fluorescence intensity of labeled cells,[2]; 1 mM Probenecid,172
same,Mean Fluorescence intensity of labeled cells,[2]; No drug,26.9
"CC(=O)Oc1cc2c(cc1Cl)C1(OC(=O)c3c(F)c(F)c(F)c(F)c31)c1cc(Cl)c(OC(C)=O)cc1O2 [Compound 28, 2',7'-dichloro4,5,6,7-tetrafluorofluorescein Diacetate]",Mean Fluorescence intensity of labeled cells,[2]; 100 μM verapamil,110
same,Mean Fluorescence intensity of labeled cells,[2]; 1 mM Probenecid,80.6
same,Mean Fluorescence intensity of labeled cells,[2]; No drug,15.6
"O=C1OC2(c3ccc(O)cc3Oc3cc(O)ccc32)c2c(F)c(F)c(F)c(F)c21 [Compound 34, 4,5,6,7-tetrafluorofluorescein]",pKa,[4],6.1
same,Abs.,[5]; absorption maximum,508 nm
same,Em.,[5]; emission maximum,527 nm
same,ε × 10^-3,"[5]; extinction coefficient, value is ε × 10^-3",85.6 cm^-1 M^-1
same,Quantum Yield,[5]; fluorescence quantum yield,0.85
same,protein labeling (degree of substitution),[3],minimal protein labeling
same,photodecomposition,[6],6.6%
"O=C1OC2(c3cc(F)c(O[C@@H]4O[C@H](CO)[C@H](O)[C@H](O)[C@H]4O)cc3Oc3cc(O[C@@H]4O[C@H](CO)[C@H](O)[C@H](O)[C@H]4O)c(F)cc32)c2ccccc21 [Compound 94, 2',7'-difluorofluorescein, bis-O-galactoside]",initial rate of fluorescence production relative to FDG,[7],3.0 times
"O=C1OC2(c3ccc(O[C@@H]4O[C@H](CO)[C@H](O)[C@H](O)[C@H]4O)cc3Oc3cc(O[C@@H]4O[C@H](CO)[C@H](O)[C@H](O)[C@H]4O)ccc32)c2c(F)c(F)c(F)c(F)c21 [Compound 95, 4,5,6,7-tetrafluorofluorescein, bis-O-galactoside]",fluorescence signal relative to FDG,[8],4.1 times
same,Fluorescence Emission,[8],4.1
"O=C1OC2(c3cc(F)c(OP(=O)(O)O)cc3Oc3cc(OP(=O)(O)O)c(F)cc32)c2ccccc21 [Compound 96, 2',7'-fluorofluorescein Diphosphate, Tetraammonium Salt]",change in signal relative to FDP,[9],~6.5 times
O=C(O)CN(CC(=O)O)c1ccccc1OCCOc1cc(NC(=O)c2ccc3c(c2)C(=O)OC32c3cc(F)c(O)cc3Oc3cc(O)c(F)cc32)ccc1N(CC(=O)O)CC(=O)O [Compound 103],fluorescence emission intensity increase,"[10]; Ca^2+ from zero to 35 μM, emission approximately 530 nm",approximately 17 fold
same,Kd,"[10]; Ca^2+, 20° C., read-out: dissociation constant",169 nM
"O=C1OC2(c3ccc(O[C@@H]4O[C@H](CO)[C@H](O)[C@H](O)[C@H]4O)cc3Oc3cc(O[C@@H]4O[C@H](CO)[C@H](O)[C@H](O)[C@H]4O)ccc32)c2ccccc21 [FDG, fluorescein digalactoside, reference compound]",Fluorescence Emission,[8],1.0
"COc1c(F)c(F)c2c(c1F)C1(OC2=O)c2ccc(O[C@@H]3O[C@H](CO)[C@H](O)[C@H](O)[C@H]3O)cc2Oc2cc(O[C@@H]3O[C@H](CO)[C@H](O)[C@H](O)[C@H]3O)ccc21 [TFMFDG, 4,5,7-trifluoro-6-methoxyfluorescein Digalactoside]",fluorescence signal relative to FDG,[8],48.1 times
same,Fluorescence Emission,[8],48.1

# Reference: US6229055A, “Synthesis of fluorinated xanthene derivatives” (Molecular Probes, Inc., priority 2000, dated 2001)
